These results are taken from article PMC5315611 (Clinical cancer research : an official journal of the …, 2016).

Where two headings read alike, the source gives them in different places.

Data set [1] concerns relapsed or refractory acute leukemia. Conditions: cited from earlier work.
A short description of data set [2]: clinical. Conditions: human, in vivo, po; for half-life: t1/2.
Data set [3] has as its system AML cell lines and clinical samples. The following applies: in vitro; cited from earlier work.
The conditions of data set [4]: human, in vivo, po.
Data set [5] in a line: Veliparib plasma pharmacokinetics. The following applies: after multiple doses, MTD (80 mg) vs highest administered dose (100 mg).

Regarding `N.N.O=C([O-])C1(C(=O)[O-])CCC1.[Pt+2]` [carboplatin], the “carboplatin dose at the MTD of the combination” value (CI IV days 3-7, with veliparib 80 mg twice daily + topotecan 1.2 mg/m^2/d) was determined as 150 mg/m^2/d. In addition, the “maximum tolerated dose (MTD) of carboplatin” value in data set [1] (with topotecan simultaneously for 5 days) is recorded as 150 mg/m^2/day.
As for `CC[C@@]1(O)C(=O)OCc2c1cc1n(c2=O)Cc2cc3c(CN(C)C)c(O)ccc3nc2-1` [topotecan], the “topotecan dose at the MTD of the combination” value (CI IV days 3-7, with veliparib 80 mg twice daily + carboplatin 150 mg/m^2/d) stood at 1.2 mg/m^2/d. For the same compound, the “toxicity associated with topotecan 1.3 mg/m^2” value (in vivo) is “dose-limiting GI mucositis”. Moreover, in data set [1] (with carboplatin simultaneously for 5 days), the “maximum tolerated dose (MTD) of topotecan” value is reported as 1.6 mg/m^2/day.
Broadly, the half-life is how long it takes for the measured level to halve. High values mean slow loss, low ones fast loss. Take `C[C@]1(c2nc3c(C(N)=O)cccc3[nH]2)CCCN1` [veliparib]: the Cmax in data set [2] (10 mg) was 74.6 ± 33 ng/mL; in data set [2] (20 mg) it was 102 ± 31.6 ng/mL; in data set [2] (40 mg), 231 ± 128 ng/mL; in data set [2] (90 mg), 509 ± 101 ng/mL; in data set [2] (100 mg), 1120 ± 718 ng/mL; in data set [4] (80 mg) it was 608.7 ± 260.3 (35) ng/mL. Besides, the half-life in data set [2] (10 mg) is 5.5 ± 3.5 h; in data set [2] (20 mg), 4.7 ± 1.1 h; in data set [2] (40 mg), 4.1 ± 0.9 h; in data set [2] (90 mg) it was 3.2 ± 1.2 h; in data set [2] (100 mg), 5.9 ± 2.4 h. For the same compound, the Tmax was 2 h in data set [2] (10 mg); 2 h in data set [2] (20 mg); 1 h in data set [2] (40 mg); 1 h in data set [2] (90 mg); 1 h in data set [2] (100 mg); 1.1 (0.3 - 6.0; 35) h in data set [4] (80 mg). Besides, where the note is “with CI IV topotecan 1.2 mg/m^2/d + carboplatin 150 mg/m^2/day on days 3-7”, the “maximum tolerated dose (MTD) of veliparib” value is recorded as 80 mg twice daily. For the same compound, the “effect on the antiproliferative and proapoptotic effects of topotecan” value in data set [3] is on record as “enhances”. Also, in data set [3], the “synergy with cytarabine or etoposide” value was “no synergy”. Moreover, the Cl/F was 27.7 ± 9.3 (23) L/h in data set [4] (10 mg); 31.7 ± 7.7 (12) L/h in data set [4] (20 mg); 36.4 ± 15.4 (5) L/h in data set [4] (40 mg); 26.2 ± 7.1 (30) L/h in data set [4] (80 mg); 35.9 ± 10.2 (3) L/h in data set [4] (90 mg); 44.9 ± 50.6 (4) L/h in data set [4] (100 mg). The t1/2 in data set [4] (80 mg) is reported as 4.7 ± 1.4 (30) h. Also, in data set [5], the “increase in AUC” value was 2.0 fold.
